Source: ChEMBL document CHEMBL5058649, “Data for DCP probe BAY 1816032” (2022)
The source made the active and inactive calls. No cut-off for these calls is given here.

Experiments:
[1] = target: Serine/threonine-protein kinase 17B (Homo sapiens) (UniProt O94768); experiment: DRAK2 DiscoveRx kinase panel; conditions: Compound concentration 1.0 uM
[2] = target: Cyclin-dependent kinase 5 (Homo sapiens) (UniProt Q00535); experiment: CDK5 DiscoveRx kinase panel; conditions: Compound concentration 1.0 uM
[3] = target: Non-receptor tyrosine-protein kinase TYK2 (Homo sapiens) (UniProt P29597); experiment: TYK2(JH1domain-catalytic) DiscoveRx kinase panel; conditions: Compound concentration 1.0 uM
[4] = target: Serine/threonine-protein kinase pim-3 (Homo sapiens) (UniProt Q86V86); experiment: PIM3 DiscoveRx kinase panel; conditions: Compound concentration 1.0 uM
[5] = target: Non-receptor tyrosine-protein kinase TNK1 (Homo sapiens) (UniProt Q13470); experiment: TNK1 DiscoveRx kinase panel; conditions: Compound concentration 1.0 uM
[6] = target: Serine/threonine-protein kinase Nek5 (Homo sapiens) (UniProt Q6P3R8); experiment: NEK5 DiscoveRx kinase panel; conditions: Compound concentration 1.0 uM
[7] = target: L-type calcium channel, dihydropyridine site (Cav1.2 alpha-1C) (Homo sapiens, UniProt Q13936); experiment: Inhibition of Calcium Channel L-Type, Dihydropyridine at 10 µM in the Eurofins-Panlabs radioligand binding assay (Eurofins_assay_214600); parameters: ligand concentration 0.1 nM, non-specific ligand with concentration 1 µM Nitrendipine, incubation time 90 min, incubation temperature 25 °C; conditions: Wistar, rat, rat cerebral cortex preparation, probe [3H] Nitrendipine; compound concentration 10 uM; target entry is the homologue from another species
[8] = target: Serine/threonine-protein kinase TNNI3K (Homo sapiens) (UniProt Q59H18); experiment: TNNI3K DiscoveRx kinase panel; conditions: Compound concentration 1.0 uM
[9] = target: Cyclin-dependent kinase-like 5 (Homo sapiens) (UniProt O76039); experiment: CDKL5 DiscoveRx kinase panel; conditions: Compound concentration 1.0 uM
[10] = target: Mitogen-activated protein kinase kinase kinase kinase 5 (Homo sapiens) (UniProt Q9Y4K4); experiment: MAP4K5 DiscoveRx kinase panel; conditions: Compound concentration 1.0 uM
[11] = target: Calcium/calmodulin-dependent protein kinase type II subunit alpha (Homo sapiens) (UniProt Q9UQM7); experiment: CAMK2A DiscoveRx kinase panel; conditions: Compound concentration 1.0 uM
[12] = target: Sodium-dependent noradrenaline transporter (Homo sapiens, UniProt P23975); conditions: Compound concentration 10.0 uM
[13] = target: Death-associated protein kinase 1 (Homo sapiens) (UniProt P53355); experiment: DAPK1 DiscoveRx kinase panel; conditions: Compound concentration 1.0 uM
[14] = target: Dual specificity protein kinase CLK1 (Homo sapiens) (UniProt P49759); experiment: CLK1 DiscoveRx kinase panel; conditions: Compound concentration 1.0 uM
[15] = target: Alpha-1D adrenergic receptor (Homo sapiens, UniProt P25100); experiment: GPCRScan assay: inhibition of Alpha1D; parameters: radioligand conc. used [nm] 0.3 – 1.0, parental cells stable
Sequence of Alpha-1D adrenergic receptor (P25100 whole entry, canonical isoform): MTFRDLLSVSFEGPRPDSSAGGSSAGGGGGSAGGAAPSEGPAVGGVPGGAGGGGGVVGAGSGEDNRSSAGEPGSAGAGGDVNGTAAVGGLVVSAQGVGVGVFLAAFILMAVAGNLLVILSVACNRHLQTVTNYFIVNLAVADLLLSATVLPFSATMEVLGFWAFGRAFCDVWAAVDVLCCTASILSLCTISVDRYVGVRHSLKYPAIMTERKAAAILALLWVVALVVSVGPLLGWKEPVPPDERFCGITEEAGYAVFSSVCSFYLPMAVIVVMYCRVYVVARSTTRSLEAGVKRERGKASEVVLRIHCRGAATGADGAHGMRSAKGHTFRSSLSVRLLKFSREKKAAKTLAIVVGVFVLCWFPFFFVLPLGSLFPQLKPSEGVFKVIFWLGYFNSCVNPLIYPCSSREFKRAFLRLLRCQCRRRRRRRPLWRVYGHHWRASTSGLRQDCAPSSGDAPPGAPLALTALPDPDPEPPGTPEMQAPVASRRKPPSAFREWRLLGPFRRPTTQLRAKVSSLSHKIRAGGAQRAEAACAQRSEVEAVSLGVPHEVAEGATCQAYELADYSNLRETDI

[16] = target: Phosphatidylinositol 4,5-bisphosphate 3-kinase catalytic subunit alpha isoform (Homo sapiens) (UniProt P42336); experiment: PIK3CA DiscoveRx kinase panel; conditions: Compound concentration 1.0 uM
Sequence of Phosphatidylinositol 4,5-bisphosphate 3-kinase catalytic subunit alpha isoform (Homo sapiens) (P42336 whole entry, canonical isoform): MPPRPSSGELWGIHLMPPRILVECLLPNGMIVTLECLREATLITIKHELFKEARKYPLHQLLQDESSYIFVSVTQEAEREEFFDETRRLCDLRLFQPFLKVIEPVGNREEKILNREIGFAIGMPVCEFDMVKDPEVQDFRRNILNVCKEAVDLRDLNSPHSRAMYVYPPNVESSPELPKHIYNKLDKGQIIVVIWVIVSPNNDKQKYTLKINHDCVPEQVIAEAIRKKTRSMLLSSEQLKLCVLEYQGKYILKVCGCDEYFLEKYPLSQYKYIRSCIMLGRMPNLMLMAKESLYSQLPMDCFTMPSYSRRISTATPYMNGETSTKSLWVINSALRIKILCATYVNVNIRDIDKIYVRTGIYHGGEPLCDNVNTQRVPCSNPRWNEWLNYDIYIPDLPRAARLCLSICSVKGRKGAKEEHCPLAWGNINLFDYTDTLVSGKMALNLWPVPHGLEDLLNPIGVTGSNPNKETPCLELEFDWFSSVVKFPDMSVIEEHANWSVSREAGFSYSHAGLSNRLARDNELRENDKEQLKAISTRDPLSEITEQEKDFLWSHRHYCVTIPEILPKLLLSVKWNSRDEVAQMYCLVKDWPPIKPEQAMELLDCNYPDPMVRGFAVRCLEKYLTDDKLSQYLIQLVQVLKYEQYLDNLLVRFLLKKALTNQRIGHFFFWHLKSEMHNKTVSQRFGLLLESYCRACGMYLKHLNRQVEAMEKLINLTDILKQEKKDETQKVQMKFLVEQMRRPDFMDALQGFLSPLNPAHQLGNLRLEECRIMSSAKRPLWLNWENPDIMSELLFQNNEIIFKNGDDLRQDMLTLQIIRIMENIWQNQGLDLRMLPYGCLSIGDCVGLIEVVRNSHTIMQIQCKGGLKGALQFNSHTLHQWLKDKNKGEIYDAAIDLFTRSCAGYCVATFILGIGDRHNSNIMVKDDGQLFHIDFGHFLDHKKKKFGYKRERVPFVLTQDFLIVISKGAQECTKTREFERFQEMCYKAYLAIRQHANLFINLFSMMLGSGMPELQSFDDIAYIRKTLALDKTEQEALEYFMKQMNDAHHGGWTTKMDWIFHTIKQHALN

[17] = target: Mitogen-activated protein kinase 10 (Homo sapiens) (UniProt P53779); experiment: JNK3 DiscoveRx kinase panel; conditions: Compound concentration 1.0 uM
[18] = target: Death-associated protein kinase 2 (Homo sapiens) (UniProt Q9UIK4); experiment: DAPK2 DiscoveRx kinase panel; conditions: Compound concentration 1.0 uM
[19] = target: Cyclin-dependent kinase 13 (Homo sapiens) (UniProt Q14004); experiment: CDC2L5 DiscoveRx kinase panel; conditions: Compound concentration 1.0 uM
[20] = target: Mitogen-activated protein kinase kinase kinase 14 (Homo sapiens) (UniProt Q99558); experiment: NIK DiscoveRx kinase panel; conditions: Compound concentration 1.0 uM
[21] = target: Angiopoietin-1 receptor (Homo sapiens) (UniProt Q02763); experiment: TIE2 DiscoveRx kinase panel; conditions: Compound concentration 1.0 uM
[22] = target: Serine/threonine-protein kinase SIK1 (Homo sapiens) (UniProt P57059); experiment: SIK DiscoveRx kinase panel; conditions: Compound concentration 1.0 uM
[23] = target: ATP-sensitive inward rectifier potassium channel 11 (Cricetulus griseus) (UniProt A0A3L7HHE1); experiment: Inhibition of Potassium Channel [KATP] at 10 µM in the Eurofins-Panlabs radioligand binding assay (Eurofins_assay_265600); conditions: Cricetinae; Compound concentration 10.0 uM
[24] = target: GABA-A receptor; anion channel (Rattus norvegicus) (UniProt O09028+P15431+P18506+P18508+P19969+P20236+P23574+P23576+P28471+P28473+P30191+P62813+P63079+P63138+Q91ZM7+Q9ES14); conditions: Compound concentration 10.0 uM
[25] = target: Phosphatidylinositol 3-kinase catalytic subunit type 3 (Homo sapiens) (UniProt Q8NEB9); experiment: VPS34 DiscoveRx kinase panel; conditions: Compound concentration 1.0 uM
[26] = target: Serine/threonine-protein kinase 38 (Homo sapiens) (UniProt Q15208); experiment: NDR1 DiscoveRx kinase panel; conditions: Compound concentration 1.0 uM
[27] = target: Serine/threonine-protein kinase BRSK1 (Homo sapiens) (UniProt Q8TDC3); experiment: BRSK1 DiscoveRx kinase panel; conditions: Compound concentration 1.0 uM
[28] = target: Interleukin-1 receptor-associated kinase 4 (Homo sapiens) (UniProt Q9NWZ3); experiment: IRAK4 DiscoveRx kinase panel; conditions: Compound concentration 1.0 uM
Homo sapiens = organism: Homo sapiens; experiment: Inhibition of Phosphodiesterase PDE4 at compound concentration of 10.0 uM in the Eurofins-Panlabs enzyme assay (Eurofins_assay_154000); assay type: protein assay; parameters: substrate with concentration 1.01 uM [3 H]cAMP + cAMP, incubation time 20 min, incubation temperature 25 C; conditions: Compound concentration 10.0 uM
[29] = target: Ephrin type-A receptor 8 (Homo sapiens) (UniProt P29322); experiment: EPHA8 DiscoveRx kinase panel; conditions: Compound concentration 1.0 uM
Sequence of Ephrin type-A receptor 8 (Homo sapiens) (P29322 whole entry, the tested form may be a part): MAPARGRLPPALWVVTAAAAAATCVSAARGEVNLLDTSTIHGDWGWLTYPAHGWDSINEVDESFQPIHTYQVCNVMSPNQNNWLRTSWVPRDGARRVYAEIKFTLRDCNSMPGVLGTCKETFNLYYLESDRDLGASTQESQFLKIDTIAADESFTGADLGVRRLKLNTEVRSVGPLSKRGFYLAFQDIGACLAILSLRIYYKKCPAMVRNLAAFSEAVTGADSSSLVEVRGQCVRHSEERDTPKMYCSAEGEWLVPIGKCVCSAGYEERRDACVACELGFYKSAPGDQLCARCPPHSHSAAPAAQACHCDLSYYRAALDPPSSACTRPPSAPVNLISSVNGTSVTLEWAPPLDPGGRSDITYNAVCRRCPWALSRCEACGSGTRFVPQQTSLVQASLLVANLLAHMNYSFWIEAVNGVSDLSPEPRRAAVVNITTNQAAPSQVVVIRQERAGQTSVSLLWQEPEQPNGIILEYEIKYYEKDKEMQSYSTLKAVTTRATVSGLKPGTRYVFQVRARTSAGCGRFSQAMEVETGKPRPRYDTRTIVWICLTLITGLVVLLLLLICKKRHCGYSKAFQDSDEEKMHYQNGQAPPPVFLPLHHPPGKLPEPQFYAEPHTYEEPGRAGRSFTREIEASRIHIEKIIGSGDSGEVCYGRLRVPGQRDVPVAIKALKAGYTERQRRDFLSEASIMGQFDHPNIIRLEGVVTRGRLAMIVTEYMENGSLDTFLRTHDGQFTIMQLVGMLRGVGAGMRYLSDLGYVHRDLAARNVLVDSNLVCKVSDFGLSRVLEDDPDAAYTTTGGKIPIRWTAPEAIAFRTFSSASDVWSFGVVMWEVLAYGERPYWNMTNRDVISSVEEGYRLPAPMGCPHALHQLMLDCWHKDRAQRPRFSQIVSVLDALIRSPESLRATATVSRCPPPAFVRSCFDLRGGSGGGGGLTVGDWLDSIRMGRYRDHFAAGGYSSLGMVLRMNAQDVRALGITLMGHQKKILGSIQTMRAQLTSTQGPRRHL

[30] = target: Discoidin domain-containing receptor 2 (Homo sapiens) (UniProt Q16832); experiment: DDR2 DiscoveRx kinase panel; conditions: Compound concentration 1.0 uM
[31] = target: SNF-related serine/threonine-protein kinase (Homo sapiens) (UniProt Q9NRH2); experiment: SNRK DiscoveRx kinase panel; conditions: Compound concentration 1.0 uM
[32] = target: Mitotic checkpoint serine/threonine-protein kinase BUB1 (Homo sapiens, UniProt O43683); experiment: BUB1 biochemical assay (low ATP)
[33] = target: Serine/threonine-protein kinase 16 (Homo sapiens) (UniProt O75716); experiment: STK16 DiscoveRx kinase panel; conditions: Compound concentration 1.0 uM
[34] = target: 1-phosphatidylinositol 3-phosphate 5-kinase (Homo sapiens) (UniProt Q9Y2I7); experiment: PIKFYVE DiscoveRx kinase panel; conditions: Compound concentration 1.0 uM
Sequence of 1-phosphatidylinositol 3-phosphate 5-kinase (Homo sapiens) (Q9Y2I7 whole entry): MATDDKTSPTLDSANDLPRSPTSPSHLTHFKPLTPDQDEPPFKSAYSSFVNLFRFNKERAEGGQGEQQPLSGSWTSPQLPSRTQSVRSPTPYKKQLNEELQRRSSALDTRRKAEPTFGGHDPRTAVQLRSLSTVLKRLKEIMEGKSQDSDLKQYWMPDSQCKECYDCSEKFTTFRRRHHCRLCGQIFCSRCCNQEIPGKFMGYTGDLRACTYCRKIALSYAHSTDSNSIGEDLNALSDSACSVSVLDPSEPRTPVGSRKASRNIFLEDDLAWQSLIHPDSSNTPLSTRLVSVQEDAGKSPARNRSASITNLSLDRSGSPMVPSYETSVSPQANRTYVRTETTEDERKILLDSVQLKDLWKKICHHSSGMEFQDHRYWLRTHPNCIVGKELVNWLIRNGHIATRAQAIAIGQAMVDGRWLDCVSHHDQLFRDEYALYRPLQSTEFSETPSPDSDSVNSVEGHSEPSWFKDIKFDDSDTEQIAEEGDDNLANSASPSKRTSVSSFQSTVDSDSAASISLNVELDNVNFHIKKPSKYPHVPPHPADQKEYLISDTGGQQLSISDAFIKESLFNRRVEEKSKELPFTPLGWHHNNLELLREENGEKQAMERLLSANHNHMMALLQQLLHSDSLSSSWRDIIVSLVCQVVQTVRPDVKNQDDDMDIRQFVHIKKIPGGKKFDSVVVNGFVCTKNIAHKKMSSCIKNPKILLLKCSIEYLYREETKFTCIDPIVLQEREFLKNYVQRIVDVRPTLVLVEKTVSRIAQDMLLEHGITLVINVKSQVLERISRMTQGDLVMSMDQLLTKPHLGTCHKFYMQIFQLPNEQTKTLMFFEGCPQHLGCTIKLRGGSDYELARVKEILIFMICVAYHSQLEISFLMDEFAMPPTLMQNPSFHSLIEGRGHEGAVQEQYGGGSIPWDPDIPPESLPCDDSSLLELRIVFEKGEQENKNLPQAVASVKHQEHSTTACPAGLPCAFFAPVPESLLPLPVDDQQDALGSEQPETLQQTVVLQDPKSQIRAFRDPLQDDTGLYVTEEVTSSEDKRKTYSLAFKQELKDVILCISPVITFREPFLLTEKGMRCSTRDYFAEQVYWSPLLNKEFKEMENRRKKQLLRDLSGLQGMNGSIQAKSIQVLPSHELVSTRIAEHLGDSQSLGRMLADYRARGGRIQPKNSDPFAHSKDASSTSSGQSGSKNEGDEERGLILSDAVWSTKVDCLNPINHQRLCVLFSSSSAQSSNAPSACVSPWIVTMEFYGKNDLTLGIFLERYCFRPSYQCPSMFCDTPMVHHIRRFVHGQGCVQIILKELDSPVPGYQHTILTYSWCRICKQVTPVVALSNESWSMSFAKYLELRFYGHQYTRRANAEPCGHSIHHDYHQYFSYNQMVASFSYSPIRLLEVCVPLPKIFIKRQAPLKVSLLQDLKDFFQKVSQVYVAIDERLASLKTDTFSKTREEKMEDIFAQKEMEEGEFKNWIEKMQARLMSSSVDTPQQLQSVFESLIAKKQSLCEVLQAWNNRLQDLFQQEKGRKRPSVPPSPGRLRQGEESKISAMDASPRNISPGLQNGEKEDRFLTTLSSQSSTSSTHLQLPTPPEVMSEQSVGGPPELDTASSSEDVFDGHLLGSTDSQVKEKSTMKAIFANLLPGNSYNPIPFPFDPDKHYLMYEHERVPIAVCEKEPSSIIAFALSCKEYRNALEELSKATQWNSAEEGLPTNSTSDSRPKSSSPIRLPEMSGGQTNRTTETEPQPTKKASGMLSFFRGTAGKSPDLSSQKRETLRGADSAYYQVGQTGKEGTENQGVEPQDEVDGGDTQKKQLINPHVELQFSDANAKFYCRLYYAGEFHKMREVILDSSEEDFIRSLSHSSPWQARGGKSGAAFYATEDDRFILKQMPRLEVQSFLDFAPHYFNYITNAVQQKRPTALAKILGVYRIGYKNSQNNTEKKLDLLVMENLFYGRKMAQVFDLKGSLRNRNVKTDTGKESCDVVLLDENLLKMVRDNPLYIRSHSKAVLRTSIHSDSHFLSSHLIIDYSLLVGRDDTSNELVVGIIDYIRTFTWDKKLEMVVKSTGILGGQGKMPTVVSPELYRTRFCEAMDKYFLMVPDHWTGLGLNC

[35] = target: Tyrosine-protein kinase CSK (Homo sapiens) (UniProt P41240); experiment: CSK DiscoveRx kinase panel; conditions: Compound concentration 1.0 uM
[36] = target: Proto-oncogene tyrosine-protein kinase Src (Homo sapiens) (UniProt P12931); experiment: SRC DiscoveRx kinase panel; conditions: Compound concentration 1.0 uM
[37] = target: D(2) dopamine receptor (Homo sapiens) (UniProt P14416); conditions: Compound concentration 10.0 uM
[38] = target: Ribosomal protein S6 kinase alpha-2 (Homo sapiens) (UniProt Q15349); experiment: RSK3(Kin.Dom.1-N-terminal) DiscoveRx kinase panel; conditions: Compound concentration 1.0 uM
[39] = target: Histamine H2 receptor (Homo sapiens) (UniProt P25021); conditions: Compound concentration 10.0 uM
Sequence of Histamine H2 receptor (Homo sapiens) (P25021 whole entry): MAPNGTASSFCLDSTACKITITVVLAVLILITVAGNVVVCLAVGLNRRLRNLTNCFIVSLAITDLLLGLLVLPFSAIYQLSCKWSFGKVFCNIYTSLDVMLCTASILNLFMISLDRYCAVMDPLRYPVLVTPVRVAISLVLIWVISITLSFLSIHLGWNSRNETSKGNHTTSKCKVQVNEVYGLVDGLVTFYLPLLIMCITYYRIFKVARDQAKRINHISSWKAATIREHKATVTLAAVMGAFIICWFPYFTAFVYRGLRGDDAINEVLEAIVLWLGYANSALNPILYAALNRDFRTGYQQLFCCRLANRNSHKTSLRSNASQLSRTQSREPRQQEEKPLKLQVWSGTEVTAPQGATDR

[40] = target: Serine/threonine-protein kinase Chk1 (Homo sapiens) (UniProt O14757); experiment: CHEK1 DiscoveRx kinase panel; conditions: Compound concentration 1.0 uM
[41] = target: Mitogen-activated protein kinase kinase kinase 5 (Homo sapiens) (UniProt Q99683); experiment: ASK1 DiscoveRx kinase panel; conditions: Compound concentration 1.0 uM
[42] = target: Ribosomal protein S6 kinase alpha-4 (Homo sapiens) (UniProt O75676); experiment: RPS6KA4(Kin.Dom.2-C-terminal) DiscoveRx kinase panel; conditions: Compound concentration 1.0 uM
[43] = target: Tyrosine-protein kinase FRK (Homo sapiens) (UniProt P42685); experiment: FRK DiscoveRx kinase panel; conditions: Compound concentration 1.0 uM
[44] = target: Cytoplasmic tyrosine-protein kinase BMX (Homo sapiens) (UniProt P51813); experiment: BMX DiscoveRx kinase panel; conditions: Compound concentration 1.0 uM

COc1cnccc1Nc1nc(-c2nn(Cc3c(F)cc(OCCO)cc3F)c3ccccc23)ncc1OC showed a residual activity [1] of 83%, a residual activity [2] of 81% and a residual activity [3] of 100%. The residual activity [4] was 100%, the residual activity [5] was 62% and the residual activity [6] was 88%. The inhibition at 90 min, 10 µM [7] was 8% (not active), the residual activity [8] was 97% and the residual activity [9] was 100%. For the same compound, the residual activity [10] was 81%, the residual activity [11] was 58% and the inhibition [12] was 26%. The residual activity [13] was 100%, the residual activity [14] was 100% and the Ki [15] was > 10 µM. The pKi [15] was < 5, the residual activity [16] was 100% and the residual activity [17] was 56%. It also gave a residual activity [18] of 85%, a residual activity [19] of 100% and a residual activity [20] of 100%. It also gave a residual activity [21] of 41%, a residual activity [22] of 84% and an inhibition [23] of 4%. It also gave an inhibition [24] of 7%, a residual activity [25] of 55% and a residual activity [26] of 98%. For the same compound, the residual activity [27] was 93%, the residual activity [28] was 100% and the inhibition (Homo sapiens) was 52%. For the same compound, the residual activity [29] was 100%, the residual activity [30] was 93% and the residual activity [31] was 96%. The IC50 [32] was 0.0065 µM (active), the residual activity [33] was 65% and the residual activity [34] was 88%. It also gave a residual activity [35] of 77%, a residual activity [36] of 100% and an inhibition [37] of 3.66%. The residual activity [38] was 80%, the inhibition [39] was 9.79% and the residual activity [40] was 93%. It also gave a residual activity [41] of 95%, a residual activity [42] of 100% and a residual activity [43] of 85%. For the same compound, the residual activity [44] was 100%.
